# In US20040224958A1, “Pyridopyrimidinone derivatives for treatment of neurodegenerative disease” (priority 2000, published 2004):
# Key:
# cdk4/D = cdk4/D (Homo sapiens, UniProt P11802); test: Cyclin-Dependent Kinase 4 (cdk4) Assay; type: biochemical; conditions: Table 1; read-out: cdk4/D IC50
# Cdk5/p25 = Cdk5/p25 (Homo sapiens, UniProt Q00535); test: Cyclin-Dependent Kinase 5 (cdk5) Assay; type: biochemical; conditions: Table 1
# Experimental: Cyclin-Dependent Kinase 5 (cdk5) Assay
# Enzyme assays for IC50 determinations and kinetic evaluation were performed in 96-well filter plates (Millipore MAPH NOB 10). […] All components except histone and ATP were added to wells, and the plate was placed on a shaker for 5 minutes. The reaction was started by adding histone and [^32P]ATP, and the plate was shaken at 30° C. for 45 minutes. The reaction was terminated by addition of 0.1 mL of 150 mM phosphoric acid. The plate was kept at 4° C. for 30 minutes to allow substrate to precipitate. The wells were then washed three times with 0.2 mL of 75 mM phosphoric acid and ^32P incorporation was determined with a beta plate counter (Wallac Inc, Gaithersburg, Md.).
# cdk2/cyclinE = cdk2/cyclinE (Homo sapiens, UniProt P24941); test: Cyclin-Dependent Kinase Assay cdk2/cyclinE; conditions: cdk2/E IC50, Table 1
# cdc2/cyclinB = cdc2/cyclinB (Homo sapiens, UniProt P06493); test: Cyclin-Dependent Kinase Assay cdc2/cyclinB
# cdk2/cyclinA = cdk2/cyclinA (Homo sapiens, UniProt P24941); test: Cyclin-Dependent Kinase Assay cdk2/cyclinA; conditions: cdk2/A IC50, Table 1
# Chain of cdk4/D (P11802 whole entry): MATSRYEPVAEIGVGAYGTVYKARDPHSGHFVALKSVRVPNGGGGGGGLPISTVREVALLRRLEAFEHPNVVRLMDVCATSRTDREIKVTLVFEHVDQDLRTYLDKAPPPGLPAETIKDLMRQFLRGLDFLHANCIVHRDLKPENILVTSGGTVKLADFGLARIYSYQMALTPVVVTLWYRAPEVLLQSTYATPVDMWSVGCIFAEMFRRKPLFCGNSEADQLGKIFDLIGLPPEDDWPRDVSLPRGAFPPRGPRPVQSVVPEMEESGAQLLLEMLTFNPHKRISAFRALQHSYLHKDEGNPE
# Chain of cdk4/D (P24385 whole entry, further chain): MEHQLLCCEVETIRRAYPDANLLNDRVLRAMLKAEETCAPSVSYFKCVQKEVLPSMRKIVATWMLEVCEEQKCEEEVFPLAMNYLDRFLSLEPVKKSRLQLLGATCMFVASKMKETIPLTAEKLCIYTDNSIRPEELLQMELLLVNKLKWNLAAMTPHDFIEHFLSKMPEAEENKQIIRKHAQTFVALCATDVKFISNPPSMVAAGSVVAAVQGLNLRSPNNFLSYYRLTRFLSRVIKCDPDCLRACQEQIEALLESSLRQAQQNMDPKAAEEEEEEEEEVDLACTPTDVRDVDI
# Chain of cdc2/cyclinB (P06493 whole entry): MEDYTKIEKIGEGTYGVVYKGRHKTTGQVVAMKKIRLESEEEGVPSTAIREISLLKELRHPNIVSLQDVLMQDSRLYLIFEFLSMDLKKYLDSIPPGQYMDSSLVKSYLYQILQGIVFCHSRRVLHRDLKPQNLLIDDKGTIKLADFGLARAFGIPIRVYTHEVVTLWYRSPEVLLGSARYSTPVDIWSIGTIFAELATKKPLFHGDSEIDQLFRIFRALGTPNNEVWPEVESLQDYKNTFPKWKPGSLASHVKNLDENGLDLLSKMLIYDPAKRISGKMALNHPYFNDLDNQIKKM
# Chain of cdc2/cyclinB (P14635 whole entry, further chain): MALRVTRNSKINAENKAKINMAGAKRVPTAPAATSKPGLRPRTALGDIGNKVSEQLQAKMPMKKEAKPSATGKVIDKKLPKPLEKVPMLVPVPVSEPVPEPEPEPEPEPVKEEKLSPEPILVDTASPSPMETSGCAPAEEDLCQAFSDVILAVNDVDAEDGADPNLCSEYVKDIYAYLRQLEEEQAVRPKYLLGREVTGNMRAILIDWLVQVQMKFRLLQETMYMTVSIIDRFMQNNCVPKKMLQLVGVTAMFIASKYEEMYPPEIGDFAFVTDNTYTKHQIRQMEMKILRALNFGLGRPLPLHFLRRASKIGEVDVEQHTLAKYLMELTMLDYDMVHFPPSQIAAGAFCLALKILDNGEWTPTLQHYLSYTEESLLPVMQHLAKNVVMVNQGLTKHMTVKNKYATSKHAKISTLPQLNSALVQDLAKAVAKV
SMILES,IC50 (cdk4/D) [nM],IC50 (Cdk5/p25) [nM],IC50 (cdk2/cyclinE) [nM],melting point [°C],IC50 (cdc2/cyclinB) [nM],IC50 (cdk2/cyclinA) [nM]
"O=c1ccc2cnc(Nc3ccccc3)nc2n1Cc1ccccc1 [Example 35, 8-Benzyl-2-phenylamino-8H-pyrido[2,3-d]pyrimidin-7-one]",940,310,33800,215 to 216,–,–
"CCn1c(=O)ccc2cnc(Nc3ccc(N(C)C)cc3)nc21 [Example 93, 2-(4-Dimethylamino-phenylamino)-8-ethyl-8H-pyrido[2,3-d]pyrimidin-7-one]",–,64,–,189 to 191,–,–
"CCn1c(=O)ccc2cnc(Nc3ccc(OC)cc3)nc21 [Example 51, 8-Ethyl-2-(4-methoxyphenylamino)-8H-pyrido[2,3-d]pyrimidin-7-one]",–,49,–,196 to 197,–,–
"CCn1c(=O)ccc2cnc(Nc3cccc(F)c3OC)nc21 [Example 91, 8-Ethyl-2-(3-fluoro-2-methoxyphenylamino)-8H-pyrido[2,3-d]pyrimidin-7-one]",–,4450,–,92 to 93,–,–
"CCn1c(=O)ccc2cnc(Nc3ccccc3OC)nc21 [Example 92, 8-Ethyl-2-(2-methoxyphenylamino)-8H-pyrido[2,3-d]pyrimidin-7-one]",–,1680,–,126 to 128,–,–
"O=c1ccc2cnc(Nc3ccccc3)nc2n1C1CCCC1 [Example 108, 8-Cyclopentyl-2-phenylamino-8H-pyrido[2,3-d]pyrimidin-7-one]",–,26,–,188 to 192,–,–
"CCN(CC)CCOc1ccc(Nc2ncc3ccc(=O)n(CC)c3n2)cc1 [Example 52, 2-[4-(2-Diethylaminoethoxy)-phenylamino]-8-ethyl-8H-pyrido[2,3-d]-pyrimidin-7-one]",–,155,–,128 to 129,–,–
"CCn1c(=O)ccc2cnc(Nc3ccc(OCCOC)cc3)nc21 [Example 57, 8-Ethyl-2-[4-(2-methoxyethoxy)phenylamino]-8H-pyrido[2,3-d]pyrimidin-7-one]",–,218,–,169 to 171,–,–
"CCn1c(=O)ccc2cnc(Nc3ccc(OC)c(F)c3)nc21 [Example 90, 8-Ethyl-2-(3-fluoro-4-methoxyphenylamino)-8H-pyrido[2,3-d]pyrimidin-7-one]",–,29,–,196 to 198,–,–
"O=c1ccc2cnc(Nc3ccccc3)nc2n1C1CCCCC1 [Example 131, 8-Cyclohexyl-2-phenylamino-8H1-pyrido[2,3-d]pyrimidin-7-one]",–,15,–,202 to 204,–,–
"CCn1c(=O)ccc2cnc(Nc3ccc(N4CCOCC4)cc3)nc21 [Example 79, 8-Ethyl-2-(4-morpholin-4-yl-phenylamino)-8H-pyrido[2,3-d]pyrimidin-7-one]",–,107,–,227 to 228,–,–
"CCn1c(=O)ccc2cnc(Nc3cccc(F)c3)nc21 [Example 89, 8-Ethyl-2-(3-fluorophenylamino)-8H-pyrido[2,3-d]pyrimidin-7-one]",–,393,–,210 to 212,–,–
"CCn1c(=O)ccc2cnc(Nc3ccccc3)nc21 [Example 18, 8-Ethyl-2-phenylamino-8H-pyrido[2,3-d]pyrimidin-7-one]",–,65,–,203 to 204,–,–

# More lines, now with the values ahead:
IC50 (cdk4/D) [nM],IC50 (Cdk5/p25) [nM],IC50 (cdk2/cyclinE) [nM],melting point [°C],IC50 (cdc2/cyclinB) [nM],IC50 (cdk2/cyclinA) [nM],SMILES
17,124,47,199 to 200,–,–,O=c1ccc2cnc(Nc3ccc(N4CCC(CCO)CC4)cc3)nc2n1C1CCCC1 [Example 196]
500,82.6,–,164 to 165,–,–,"O=c1ccc2cnc(Nc3cccc(N4CCCCC4)c3)nc2n1C1CCCCC1 [Example 203, 8-Cyclohexyl-2-(3-piperidin-1-yl-phenylamino)-8H-pyrido[2,3-d]pyrimidin-7-one]"
–,240,–,210 to 211,–,–,"CN1CCN(c2ccc(Nc3ncc4ccc(=O)n(C5CC5)c4n3)cc2)CC1 [Example 136, 8-Cyclopropyl-2-[4-(4-methyl-piperazin-1-yl)-phenylamino]-81H-pyrido[2,3-d]pyrimidin-7-one]"
–,24,–,204 to 205,–,–,"CN(C)c1ccc(Nc2ncc3ccc(=O)n(C4CCCCC4)c3n2)cc1 [Example 147, 8-Cyclohexyl-2-(4-dimethylamino-phenylamino)-8H-pyrido[2,3-d]pyrimidin-7-one]"
15,19,44,216 to 217,118,–,"O=c1ccc2cnc(Nc3ccc(N4CCC(O)CC4)cc3)nc2n1C1CCCC1 [Example 198, 8-Cyclopentyl-2-[4-(4-hydroxy-piperidin-1-yl)-phenylamino]-8H-pyrido[2,3-d]pyrimidin-7-one]"
33.5,127,2320,208 to 209,7390,–,"O=c1ccc2cnc(Nc3ccc(N4CCC(CCCO)CC4)cc3)nc2n1C1CCCC1 [Example 197, 8-Cyclopentyl-2-{4-[4-(3-hydroxy-propyl)-piperidin-1-yl]-phenylamino]-8H-pyrido[2,3-d]pyrimidin-7-one]"
–,493,–,191 to 193,–,–,"O=c1ccc2cnc(Nc3ccccc3)nc2n1C1CC1 [Example 135, 8-Cyclopropyl-2-phenylamino-8H-pyrido[2,3-d]pyrimidin-7-one]"
–,587,1950,255 to 257,–,18000,"O=c1ccc2cnc(Nc3ccc(-c4ccccc4)cc3)nc2n1C1CC2CCC1C2 (stereo not drawn) [Example 223, 8-Bicyclo[2.2.1]hept-2-yl-2-(biphenyl-4-ylamino)-8H-pyrido[2,3-d]pyrimidin-7-one]"
136,31.2,120,189 to 190,–,–,"O=c1ccc2cnc(Nc3ccc(-n4cccc4)cc3)nc2n1C1CCCC1 [Example 190, 8-Cyclopentyl-2-(4-pyrrol-1-yl-phenylamino)-8H-pyrido[2,3-d]pyrimidin-7-one]"
–,5170,23600,183 to 191,–,13400,CN1CCN(c2ccc(Nc3ncc4ccc(=O)n(CCOCc5ccccc5)c4n3)cc2)CC1 [Example 140]
133,156,–,169 to 171,–,–,"Cc1cc(C)n(-c2ccc(Nc3ncc4ccc(=O)n(C5CCCC5)c4n3)cc2)n1 [Example 195, 8-Cyclopentyl-2-[4-(3,5-dimethyl-pyrazol-1-yl)-phenylamino]-8H-pyrido[2,3-d]pyrimidin-7-one]"
655,77.9,–,90 to 91,–,–,"O=c1ccc2cnc(Nc3cccc(N4CCCCC4)c3)nc2n1C1CCCC1 [Example 202, 8-Cyclopentyl-2-(3-piperidin-1-yl-phenylamino)-8H-pyrido[2,3-d]pyrimidin-7-one]"
53,326,–,119 to 121,–,–,"CCN(CC)CCOc1ccc(Nc2ncc3ccc(=O)n(C4CC4)c3n2)cc1 [Example 134, 8-Cyclopropyl-2-[4-(2-diethylamino-ethoxy)-phenylamino]-8H-pyrido[2,3-d]pyrimidin-7-one]"
